How the values were obtained:
[1] = test system: CSC population in a BXD GBM model; assay: In Vitro Cancer Stem Cell Assay, BXD GBM model (number of neurospheres); type: cell-based; conditions: 13 days, stated concentrations
Description: In Vitro Cancer Stem Cell Assay
The effect on inhibition of Bmi-1 function and reduction in the level of Bmi-1 protein by a compound of Formula (I) or a form thereof was tested in the in vitro pediatric Baylor Xenograft Derived (BXD) brain tumor model and in cells from primary patient cultures (PPC).
Cells were grown under conditions to measure either general cell growth (such as in fetal bovine serum (FBS) containing media in conventional tissue culture plates) or in conditions specifically for cancer stem cell (CSC) growth (low serum, nonadherent plates) to assess the effect of Bmi-1 inhibition and reduction in the level of Bmi-1 protein by a compound of Formula (I) on these populations. The cells were treated with a predetermined dose range of Compound 109 at fixed time points over a time period of from 24 hours to 13 days. The effect of inhibition on cell growth viability was quantitated using conventional 2D growth and neurosphere growth using a cell-counting kit (CCK) (supplied by Dojindo Molecular Technologies, Inc.).

Bmi-1 = assay: Sandwich ELISA Assay (Bmi-1 ELISA) in HT-1080 cells; type: cell-based
Summary of the method: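 HT-1080 cells exposed to compound in 0.5% final DMSO for 40-48 h at 37 °C, then lysed. Bmi-1 was quantified by sandwich ELISA: mouse monoclonal capture, rabbit anti-Bmi-1 detection, HRP anti-rabbit and TMB. Read at OD450 (OD570 reference) against a recombinant GST-Bmi-1 standard curve (0-8000 pg/mL).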

U87-MG tumor cells = assay: In Vivo Survival Assay, orthotopic model of glioblastoma; parameters: species or system nu/nu mice; conditions: daily dosing begun 10 days after intracranial implantation, 40 day time period, versus vehicle and temozolomide (p<0.0001)
Description: A glioblastoma animal model was developed in which U87-MG tumor cells were injected intracranially into nu/nu mice and a tumor was allowed to become established over a 10 day period. The mice were dosed daily with vehicle, Compound 109 or temozolomide (a standard-of-care agent), as indicated. The comparative results for survival for each treatment group (n=10) from administration of vehicle, Compound 109 and temozolomide are shown in FIG. 4.
Cells were implanted intracranially into nude mice and dosing was begun 10 days later with either vehicle, Compound 109 or temozolomide.

Structure (SMILES)	CSC population (as measured by number of neurospheres), FIG. 1 [1]	CSC population (as measured by number of neurospheres), FIG. 2 [1]	EC50 (Bmi-1) [nM]	survival of tumor bearing mice, FIG. 4 (U87-MG tumor cells)	melting point [°C]
Cc1nc2ccc(F)cc2n1-c1nc(N)c(F)c(Nc2ccc(C(F)(F)F)cc2)n1 [Cpd 109, 5-fluoro-2-(6-fluoro-2-methyl-1H-benzimidazol-1-yl)-N-[4-(trifluoromethyl)phenyl]pyrimidine-4,6-diamine]	dose dependently reduced	universally reduced	10 to 100	extended survival	
Cc1nc2ccccc2n1-c1nc(N)cc(Nc2ccc3c(c2)OCO3)n1 [Cpd 205, N-(1,3-benzodioxol-5-yl)-2-(2-methyl-1H-benzimidazol-1-yl)pyrimidine-4,6-diamine]			1 to 10		166 to 167
Cc1nc2ccccc2n1-c1nc(N)cc(Nc2ccc3c(c2)OC(F)(F)O3)n1 [Cpd 206, N-(2,2-difluoro-1,3-benzodioxol-5-yl)-2-(2-methyl-1H-benzimidazol-1-yl)pyrimidine-4,6-diamine]			10 to 100		141 to 142
COc1ccc(Nc2cc(N)nc(-n3c(C)nc4ccccc43)n2)cc1F [Cpd 207, N-(3-fluoro-4-methoxyphenyl)-2-(2-methyl-1H-benzimidazol-1-yl)pyrimidine-4,6-diamine]			1 to 10		233 to 234
COc1ccc(Nc2cc(N)nc(-n3c(C)nc4ccccc43)n2)cn1 [Cpd 208, N-(6-methoxypyridin-3-yl)-2-(2-methyl-1H-benzimidazol-1-yl)pyrimidine-4,6-diamine]			1 to 10		118 to 119
Cc1nc2ccc(F)cn2c1-c1nc(N)c(F)c(Nc2ccc(Cl)cc2)n1 [Cpd 251, N-(4-chlorophenyl)-5-fluoro-2-(6-fluoro-2-methylimidazo[1,2-a]pyridin-3-yl)pyrimidine-4,6-diamine]			100 to 3000		226 to 229
COc1ccc(Nc2nc(-c3c(C)nc4ccc(F)cn34)nc(N)c2F)cc1 [Cpd 252, 5-fluoro-2-(6-fluoro-2-methylimidazo[1,2-a]pyridin-3-yl)-N-(4-methoxyphenyl)pyrimidine-4,6-diamine]			10 to 100		204 to 206
Cc1ccc(Nc2nc(-c3c(C)nc4ccc(F)cn34)nc(N)c2F)cc1 [Cpd 253, 5-fluoro-2-(6-fluoro-2-methylimidazo[1,2-a]pyridin-3-yl)-N-(4-methylphenyl)pyrimidine-4,6-diamine]			1 to 10		210 to 212
Cc1nc2ccc(F)cc2n1-c1nc(N)cc(Nc2ccc(Cl)cc2)n1 [Cpd 263, N-(4-chlorophenyl)-2-(6-fluoro-2-methyl-1H-benzimidazol-1-yl)pyrimidine-4,6-diamine]			10 to 100		183 to 185
Cc1nc2ccc(F)cc2n1-c1nc(N)cc(Nc2ccc(N(C)C)cc2)n1 [Cpd 266, N-[4-(dimethylamino)phenyl]-2-(6-fluoro-2-methyl-1H-benzimidazol-1-yl)pyrimidine-4,6-diamine]			10 to 100		122 to 125
Cc1nc2ccc(F)cc2n1-c1nc(N)cc(Nc2ccc(Cl)c(F)c2)n1 [Cpd 267, N-(4-chloro-3-fluorophenyl)-2-(6-fluoro-2-methyl-1H-benzimidazol-1-yl)pyrimidine-4,6-diamine]			100 to 3000		225 to 227
Cc1cccc(Nc2cc(N)nc(-n3c(C)nc4ccc(F)cc43)n2)c1 [Cpd 268, 2-(6-fluoro-2-methyl-1H-benzimidazol-1-yl)-N-(3-methylphenyl)pyrimidine-4,6-diamine]			100 to 3000		203 to 205
Cc1nc2ccc(F)cc2n1-c1nc(N)cc(Nc2ccc3c(c2)OC(F)(F)O3)n1 [Cpd 269, N-(2,2-difluoro-1,3-benzodioxol-5-yl)-2-(6-fluoro-2-methyl-1H-benzimidazol-1-yl)pyrimidine-4,6-diamine]			100 to 3000		212 to 215

— patent US11180483B2, “Substituted reverse pyrimidine Bmi-1 inhibitors” (PTC Therapeutics, Inc., priority 2012, dated 2021)
